Data: ChEMBL document CHEMBL2401630, “A thienopyrimidine derivative induces growth inhibition and apoptosis in human cancer cell lines via inhibiting Aurora B kinase activity” (Eur J Med Chem, 2013)
Active and inactive are the calls of the source. The calls are words filed in the database; no cut-off is given here.

Experiments:
SW-620 [1] = test: Growth inhibition in human SW620 cells at 5 to 10 uM incubated for 96 hrs followed by compound washout measured after 48 hrs by CCK-8 assay; assay type: functional, cell-based
[2] = biological target: CDK2/Cyclin A2 (Homo sapiens) (UniProt P24941+P20248); test: Inhibition of CDK2/CycA (unknown origin) at 10 uM by Z'-LYTE kinase assay; assay type: protein-complex assay
PC-3 = test: Cytotoxicity against human PC3 cells after 72 hrs by CCK-8 assay; assay type: functional, cell-based; conditions: PC-3, 72 h
[3] = biological target: Vascular endothelial growth factor receptor 2 (Homo sapiens) (UniProt P35968); test: Inhibition of VEGFR2 (unknown origin) at 10 uM by Z'-LYTE kinase assay
Aurora kinase B [4] = biological target: T1, Aurora kinase B (Homo sapiens, UniProt Q96GD4); test: Inhibition of Aurora B kinase in human HeLa cells assessed as inhibition of Histone H3 phosphorylation after 48 hrs by immuno-fluorescence analysis relative to control; assay type: cell-based
SK-HEP1 = test: Cytotoxicity against human SKHEP1 cells after 72 hrs by CCK-8 assay; assay type: functional, cell-based; conditions: SK-HEP1, 72 h
Aurora kinase B [5] = biological target: T1, Aurora kinase B; test: Inhibition of recombinant Aurora B kinase (unknown origin) expressed in Escherichia coli
CNE = test: Cytotoxicity against human CNE cells after 72 hrs by CCK-8 assay; assay type: functional, cell-based
[6] = biological target: Aurora kinase A (Homo sapiens) (UniProt O14965); test: Inhibition of Aurora A kinase (unknown origin) at 10 uM by Z'-LYTE kinase assay
[7] = biological target: 5'-AMP-activated protein kinase catalytic subunit alpha-2 (Homo sapiens) (UniProt P54646); test: Inhibition of AMPK (unknown origin) at 10 uM by Z'-LYTE kinase assay
Aurora kinase B [8] = biological target: T1, Aurora kinase B; test: Inhibition of Aurora B kinase (unknown origin) at 10 uM by Z'-LYTE kinase assay
Aurora kinase B [9] = biological target: T1, Aurora kinase B; test: Inhibition of Aurora B kinase phosphorylation in human SW620 cells after 48 hrs by Western blotting analysis; assay type: cell-based; conditions: SW-620
SW-620 [10] = test: Induction of apoptosis in human SW620 cells assessed as late apoptotic cells at 5 uM after 48 hrs by Annexin-V staining-based flow cytometry (reference value: 4.52 %); assay type: functional
HCT-116 = test: Cytotoxicity against human HCT116 cells after 72 hrs by CCK-8 assay; assay type: functional, cell-based; conditions: HCT-116, 72 h
Aurora kinase B [11] = biological target: T1, Aurora kinase B; test: Inhibition of Aurora B kinase in human SW620 cells assessed as inhibition of Histone H3 phosphorylation after 48 hrs by Western blotting analysis; assay type: cell-based; conditions: SW-620
SW-620 [12] = test: Growth inhibition in human SW620 cells at 5 to 10 uM after 96 hrs by CCK-8 assay relative to control; assay type: functional, cell-based
SK-OV-3 = test: Cytotoxicity against human SKOV3 cells after 72 hrs by CCK-8 assay; assay type: functional, cell-based; conditions: SK-OV-3, 72 h
MCF7 = test: Cytotoxicity against human MCF7 cells after 72 hrs by CCK-8 assay; assay type: functional, cell-based; conditions: MCF7, 72 h
[13] = Cytotoxicity against human PANC cells after 72 hrs by CCK-8 assay; assay type: functional, cell-based
[14] = biological target: Glycogen synthase kinase-3 beta (Homo sapiens) (UniProt P49841); test: Inhibition of GSK3 beta (unknown origin) at 10 uM by Z'-LYTE kinase assay
Aurora kinase B [15] = biological target: T1, Aurora kinase B; test: Inhibition of Aurora B kinase in human HepG2 cells assessed as inhibition of Histone H3 phosphorylation after 48 hrs by Western blotting analysis; assay type: cell-based
HeLa = test: Cytotoxicity against human HeLa cells after 72 hrs by CCK-8 assay; assay type: functional, cell-based
[16] = biological target: Tyrosine-protein kinase receptor UFO (Homo sapiens) (UniProt P30530); test: Inhibition of AXL (unknown origin) at 10 uM by Z'-LYTE kinase assay
[17] = biological target: Platelet-derived growth factor receptor beta (Homo sapiens) (UniProt P09619); test: Inhibition of PDGFR beta (unknown origin) at 10 uM by Z'-LYTE kinase assay
SW-620 [18] = test: Growth inhibition in human SW620 cells assessed as cell death at 10 uM incubated for 96 hrs measured after 8 days by CCK-8 assay; assay type: functional, cell-based
SW-620 [19] = test: Induction of apoptosis in human SW620 cells assessed as late apoptotic cells at 10 uM after 48 hrs by Annexin-V staining-based flow cytometry (reference value: 4.52 %); assay type: functional
A-375 = test: Cytotoxicity against human A375 cells after 72 hrs by CCK-8 assay; assay type: functional, cell-based; conditions: A-375, 72 h
SW-620 [20] = test: Cytotoxicity against human SW620 cells after 72 hrs by CCK-8 assay; assay type: functional, cell-based; conditions: SW-620, 72 h
[21] = Cytotoxicity against human Hep3B cells after 72 hrs by CCK-8 assay; assay type: functional, cell-based, Hep 3B2
[22] = biological target: RAC-alpha serine/threonine-protein kinase (Homo sapiens) (UniProt P31749); test: Inhibition of AKT1 (unknown origin) at 10 uM by Z'-LYTE kinase assay
[23] = biological target: High affinity nerve growth factor receptor (Homo sapiens) (UniProt P04629); test: Inhibition of TRKA (unknown origin) at 10 uM by Z'-LYTE kinase assay
Aurora kinase B [24] = biological target: T1, Aurora kinase B; test: Inhibition of Aurora B kinase phosphorylation in human HepG2 cells after 48 hrs by Western blotting analysis; assay type: cell-based
[25] = biological target: RAF proto-oncogene serine/threonine-protein kinase (Homo sapiens) (UniProt P04049); test: Inhibition of c-Raf (unknown origin) at 10 uM by Z'-LYTE kinase assay
SW-620 [26] = test: Cytotoxicity against human SW620 cells at 10 uM incubated for 96 hrs measured after 10 days by colony formation assay relative to control; assay type: functional
Aurora kinase B [27] = biological target: T1, Aurora kinase B; test: Inhibition of Aurora B kinase phosphorylation in human HeLa cells after 48 hrs by Western blotting analysis; assay type: cell-based
[28] = biological target: Proto-oncogene tyrosine-protein kinase receptor Ret (Homo sapiens) (UniProt P07949); test: Inhibition of RET (unknown origin) at 10 uM by Z'-LYTE kinase assay
Aurora kinase B [29] = biological target: T1, Aurora kinase B; test: Inhibition of Aurora B kinase in human HeLa cells assessed as inhibition of Histone H3 phosphorylation after 48 hrs by Western blotting analysis; assay type: cell-based
A549 = test: Cytotoxicity against human A549 cells after 72 hrs by CCK-8 assay; assay type: functional, cell-based; conditions: A549, 72 h
Aurora kinase B [30] = biological target: T1, Aurora kinase B; test: Competitive inhibition of recombinant Aurora B kinase (unknown origin) expressed in Escherichia coli by Z'-LYTE kinase assay in presence of ATP
SW-620 [31] = test: Induction of apoptosis in human SW620 cells assessed as late apoptotic cells at 20 uM after 48 hrs by Annexin-V staining-based flow cytometry (reference value: 4.52 %); assay type: functional
MDA-MB-231 = test: Cytotoxicity against human MDA-MB-231 cells after 72 hrs by CCK-8 assay; assay type: functional, cell-based; conditions: MDA-MB-231, 72 h
HepG2 = test: Cytotoxicity against human HepG2 cells after 72 hrs by CCK-8 assay; assay type: functional, cell-based; conditions: HepG2, 72 h
SW-620 [32] = test: Cytotoxicity against human SW620 cells at 20 uM incubated for 96 hrs measured after 10 days by colony formation assay relative to control; assay type: functional
[33] = biological target: Serine/threonine-protein kinase PLK1 (Homo sapiens) (UniProt P53350); test: Inhibition of PLK1 (unknown origin) at 10 uM by Z'-LYTE kinase assay
[34] = biological target: Epidermal growth factor receptor (Homo sapiens) (UniProt P00533); test: Inhibition of EGFR (unknown origin) at 10 uM by Z'-LYTE kinase assay
HGC-27 = test: Cytotoxicity against human HGC27 cells after 72 hrs by CCK-8 assay; assay type: functional, cell-based; conditions: HGC-27, 72 h
SW-620 [35] = test: Induction of apoptosis in human SW620 cells assessed as late apoptotic cells after 48 hrs by Annexin-V staining-based flow cytometry; assay type: functional, cell-based
Homo sapiens = organism: Homo sapiens; test: Inhibition of PKA (unknown origin) at 10 uM by Z'-LYTE kinase assay

T1 sequence (Q96GD4 whole entry): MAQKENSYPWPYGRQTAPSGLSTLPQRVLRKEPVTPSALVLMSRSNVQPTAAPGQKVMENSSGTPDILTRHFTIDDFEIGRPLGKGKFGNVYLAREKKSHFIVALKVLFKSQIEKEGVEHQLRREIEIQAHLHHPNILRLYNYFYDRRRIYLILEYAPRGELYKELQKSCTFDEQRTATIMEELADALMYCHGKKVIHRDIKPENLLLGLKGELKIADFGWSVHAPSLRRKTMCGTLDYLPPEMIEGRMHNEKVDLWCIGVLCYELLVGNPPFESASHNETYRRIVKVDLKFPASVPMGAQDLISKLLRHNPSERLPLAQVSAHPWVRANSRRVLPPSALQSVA
Chain of Epidermal growth factor receptor (Homo sapiens) (P00533 whole entry): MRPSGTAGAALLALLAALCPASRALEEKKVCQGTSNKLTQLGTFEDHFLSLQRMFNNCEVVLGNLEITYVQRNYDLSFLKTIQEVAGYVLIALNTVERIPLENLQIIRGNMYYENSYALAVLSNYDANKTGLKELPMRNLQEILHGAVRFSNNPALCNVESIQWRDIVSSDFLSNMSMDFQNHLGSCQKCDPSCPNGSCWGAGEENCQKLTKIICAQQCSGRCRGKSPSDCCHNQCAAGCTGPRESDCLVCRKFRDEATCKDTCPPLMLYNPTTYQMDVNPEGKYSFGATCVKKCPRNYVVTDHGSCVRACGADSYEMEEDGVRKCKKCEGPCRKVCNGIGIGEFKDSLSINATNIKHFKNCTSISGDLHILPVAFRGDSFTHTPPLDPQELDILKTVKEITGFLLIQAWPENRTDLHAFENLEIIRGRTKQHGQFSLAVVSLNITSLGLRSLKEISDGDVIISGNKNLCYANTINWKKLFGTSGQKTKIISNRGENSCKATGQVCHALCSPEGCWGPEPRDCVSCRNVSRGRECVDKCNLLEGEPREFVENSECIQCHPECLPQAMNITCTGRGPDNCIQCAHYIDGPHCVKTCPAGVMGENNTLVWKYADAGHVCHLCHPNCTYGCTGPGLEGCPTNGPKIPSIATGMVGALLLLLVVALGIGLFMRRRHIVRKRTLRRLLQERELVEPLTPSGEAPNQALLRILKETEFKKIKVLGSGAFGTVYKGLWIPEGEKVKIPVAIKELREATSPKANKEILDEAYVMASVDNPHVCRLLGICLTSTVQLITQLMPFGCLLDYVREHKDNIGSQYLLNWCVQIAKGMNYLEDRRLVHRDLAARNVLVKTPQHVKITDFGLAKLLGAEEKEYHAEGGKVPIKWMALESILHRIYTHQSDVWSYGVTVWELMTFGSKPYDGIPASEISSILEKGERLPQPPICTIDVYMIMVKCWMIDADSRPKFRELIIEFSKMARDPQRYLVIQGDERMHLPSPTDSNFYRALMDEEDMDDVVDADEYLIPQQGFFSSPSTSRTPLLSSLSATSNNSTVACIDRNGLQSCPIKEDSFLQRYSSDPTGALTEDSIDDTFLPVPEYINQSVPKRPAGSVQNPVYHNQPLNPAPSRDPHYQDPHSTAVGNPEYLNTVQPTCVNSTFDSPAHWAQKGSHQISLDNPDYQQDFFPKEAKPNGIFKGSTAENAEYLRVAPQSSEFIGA
Chain of Proto-oncogene tyrosine-protein kinase receptor Ret (Homo sapiens) (P07949 whole entry): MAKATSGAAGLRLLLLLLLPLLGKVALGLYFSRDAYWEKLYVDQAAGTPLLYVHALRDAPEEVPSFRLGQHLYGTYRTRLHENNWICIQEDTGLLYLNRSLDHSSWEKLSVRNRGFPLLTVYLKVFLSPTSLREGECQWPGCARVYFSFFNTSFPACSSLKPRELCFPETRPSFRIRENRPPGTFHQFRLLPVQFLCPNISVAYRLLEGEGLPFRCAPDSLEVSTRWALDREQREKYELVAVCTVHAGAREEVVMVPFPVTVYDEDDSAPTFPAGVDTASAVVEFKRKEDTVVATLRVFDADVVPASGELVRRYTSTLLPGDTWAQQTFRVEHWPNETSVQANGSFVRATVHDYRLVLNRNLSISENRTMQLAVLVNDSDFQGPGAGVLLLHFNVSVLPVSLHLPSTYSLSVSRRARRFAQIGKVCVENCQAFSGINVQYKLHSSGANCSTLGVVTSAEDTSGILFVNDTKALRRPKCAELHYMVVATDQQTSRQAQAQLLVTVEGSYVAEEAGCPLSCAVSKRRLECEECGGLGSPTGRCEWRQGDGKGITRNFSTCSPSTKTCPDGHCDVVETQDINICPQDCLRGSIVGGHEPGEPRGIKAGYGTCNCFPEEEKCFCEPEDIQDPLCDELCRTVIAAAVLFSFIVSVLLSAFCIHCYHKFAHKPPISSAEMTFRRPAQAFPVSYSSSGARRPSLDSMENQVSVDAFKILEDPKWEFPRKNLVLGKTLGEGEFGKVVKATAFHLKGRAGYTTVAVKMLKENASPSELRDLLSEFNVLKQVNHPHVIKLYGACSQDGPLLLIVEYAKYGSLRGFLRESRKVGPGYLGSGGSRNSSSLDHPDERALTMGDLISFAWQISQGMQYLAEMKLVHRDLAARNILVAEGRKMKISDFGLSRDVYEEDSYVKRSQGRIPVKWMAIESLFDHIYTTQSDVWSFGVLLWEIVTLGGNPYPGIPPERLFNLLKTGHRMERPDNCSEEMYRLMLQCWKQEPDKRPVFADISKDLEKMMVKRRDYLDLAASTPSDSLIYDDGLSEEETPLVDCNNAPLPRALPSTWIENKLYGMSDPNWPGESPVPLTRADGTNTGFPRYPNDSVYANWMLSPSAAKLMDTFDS
Chain of Aurora kinase A (Homo sapiens) (O14965 whole entry): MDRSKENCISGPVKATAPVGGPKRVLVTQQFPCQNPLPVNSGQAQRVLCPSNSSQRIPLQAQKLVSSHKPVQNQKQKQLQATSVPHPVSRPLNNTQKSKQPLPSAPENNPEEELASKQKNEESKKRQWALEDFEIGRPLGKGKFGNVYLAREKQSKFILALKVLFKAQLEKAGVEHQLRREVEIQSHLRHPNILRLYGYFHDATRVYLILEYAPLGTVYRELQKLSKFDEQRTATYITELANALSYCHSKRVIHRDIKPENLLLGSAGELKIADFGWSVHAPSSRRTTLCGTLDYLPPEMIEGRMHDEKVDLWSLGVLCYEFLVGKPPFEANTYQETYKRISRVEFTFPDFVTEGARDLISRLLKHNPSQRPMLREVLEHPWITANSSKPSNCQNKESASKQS
Chain of Serine/threonine-protein kinase PLK1 (Homo sapiens) (P53350 whole entry): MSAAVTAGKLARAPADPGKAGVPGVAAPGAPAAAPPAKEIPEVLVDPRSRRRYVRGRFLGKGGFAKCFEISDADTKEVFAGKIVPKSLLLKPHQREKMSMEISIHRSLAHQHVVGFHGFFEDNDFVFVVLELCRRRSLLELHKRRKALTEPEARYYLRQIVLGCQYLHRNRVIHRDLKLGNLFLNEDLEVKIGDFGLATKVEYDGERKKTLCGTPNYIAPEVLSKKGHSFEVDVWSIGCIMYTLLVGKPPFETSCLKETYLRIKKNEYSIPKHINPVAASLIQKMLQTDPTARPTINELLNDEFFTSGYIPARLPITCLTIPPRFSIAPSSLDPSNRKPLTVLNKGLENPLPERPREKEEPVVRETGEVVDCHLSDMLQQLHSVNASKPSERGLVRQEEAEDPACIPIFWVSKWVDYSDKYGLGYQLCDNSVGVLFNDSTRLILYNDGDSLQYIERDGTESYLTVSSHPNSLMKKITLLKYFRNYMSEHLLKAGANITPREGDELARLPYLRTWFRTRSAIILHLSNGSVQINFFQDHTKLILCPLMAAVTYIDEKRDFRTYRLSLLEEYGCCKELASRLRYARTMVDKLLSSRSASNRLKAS
Chain of Vascular endothelial growth factor receptor 2 (Homo sapiens) (P35968 whole entry): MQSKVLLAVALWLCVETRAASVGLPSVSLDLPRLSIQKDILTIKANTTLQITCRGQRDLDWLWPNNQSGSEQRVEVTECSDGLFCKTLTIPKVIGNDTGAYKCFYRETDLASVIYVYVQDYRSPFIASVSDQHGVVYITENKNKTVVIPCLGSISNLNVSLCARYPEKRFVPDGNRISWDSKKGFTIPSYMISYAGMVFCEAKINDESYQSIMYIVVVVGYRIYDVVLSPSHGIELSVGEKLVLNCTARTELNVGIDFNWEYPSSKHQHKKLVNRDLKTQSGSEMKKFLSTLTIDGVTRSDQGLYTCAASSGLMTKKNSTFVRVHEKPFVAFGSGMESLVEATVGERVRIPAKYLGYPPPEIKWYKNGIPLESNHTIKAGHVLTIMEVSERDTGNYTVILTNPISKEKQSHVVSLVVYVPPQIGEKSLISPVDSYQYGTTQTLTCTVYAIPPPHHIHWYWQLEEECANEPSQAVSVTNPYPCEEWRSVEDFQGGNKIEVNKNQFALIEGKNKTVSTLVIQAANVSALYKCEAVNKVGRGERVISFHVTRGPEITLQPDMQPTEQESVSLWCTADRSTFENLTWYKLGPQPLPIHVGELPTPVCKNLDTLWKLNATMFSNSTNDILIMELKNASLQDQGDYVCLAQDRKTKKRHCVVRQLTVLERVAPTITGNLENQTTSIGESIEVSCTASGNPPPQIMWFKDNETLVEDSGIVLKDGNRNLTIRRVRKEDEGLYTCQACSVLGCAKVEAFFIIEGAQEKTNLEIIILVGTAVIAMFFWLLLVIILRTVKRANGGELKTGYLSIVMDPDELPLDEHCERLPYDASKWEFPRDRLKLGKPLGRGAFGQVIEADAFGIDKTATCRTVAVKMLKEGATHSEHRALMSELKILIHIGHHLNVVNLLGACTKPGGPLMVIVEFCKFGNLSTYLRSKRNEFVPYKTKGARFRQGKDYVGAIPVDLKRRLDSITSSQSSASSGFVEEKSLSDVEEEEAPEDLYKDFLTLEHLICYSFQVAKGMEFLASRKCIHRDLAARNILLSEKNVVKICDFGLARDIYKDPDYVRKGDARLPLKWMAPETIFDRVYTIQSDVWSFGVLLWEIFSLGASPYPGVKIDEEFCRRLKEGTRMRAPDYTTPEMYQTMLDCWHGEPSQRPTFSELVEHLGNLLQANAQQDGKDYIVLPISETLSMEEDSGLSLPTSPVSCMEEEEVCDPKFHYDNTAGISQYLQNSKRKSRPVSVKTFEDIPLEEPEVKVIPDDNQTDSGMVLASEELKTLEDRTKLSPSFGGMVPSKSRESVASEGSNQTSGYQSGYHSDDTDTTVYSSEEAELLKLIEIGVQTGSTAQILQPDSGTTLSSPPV

inhibition [2]: 27.7% | inhibition [3]: 3.02% | inhibition (Aurora kinase B [4]): Active | IC50 (Aurora kinase B [5]): 0.141 µM | inhibition [6]: 65.3% | inhibition [7]: 3.37% | inhibition (Aurora kinase B [8]): 74.4% | inhibition (Aurora kinase B [9]): Dose-dependent effect | inhibition (Aurora kinase B [11]): Active | inhibition [14]: 13% | inhibition (Aurora kinase B [15]): Active | inhibition [16]: 2.58% | inhibition [17]: 9.63% | inhibition [22]: 5.32% | inhibition [23]: 4.18% | inhibition (Aurora kinase B [24]): Dose-dependent effect | inhibition [25]: 1.42% | inhibition (Aurora kinase B [27]): Dose-dependent effect | inhibition [28]: 1.86% | inhibition (Aurora kinase B [29]): Active | inhibition (Aurora kinase B [30]): Active | inhibition [33]: 6.5% | inhibition [34]: 1.69% | inhibition (Homo sapiens): 1.77%
SMILES: c1ccc(-c2csc3ncnc(N4CCc5ccccc5C4)c23)cc1
growth inhibition (GI) (SW-620 [1]): inactive | IC50 (PC-3): 13.2 µM | IC50 (SK-HEP1): > 100 µM | IC50 (CNE): > 100 µM | Activity (SW-620 [10]): 9.34% | IC50 (HCT-116): > 100 µM | growth inhibition (GI) (SW-620 [12]): Active | IC50 (SK-OV-3): 20.6 µM | IC50 (MCF7): 27 µM | IC50 [13]: 42.3 µM | IC50 (HeLa): 20.8 µM | growth inhibition (GI) (SW-620 [18]): Active | Activity (SW-620 [19]): 24.09% | IC50 (A-375): 15.2 µM | IC50 (SW-620 [20]): 6.25 µM | IC50 [21]: > 100 µM | Activity (SW-620 [26]): 33.6% | IC50 (A549): > 100 µM | Activity (SW-620 [31]): 35.39% | IC50 (MDA-MB-231): > 100 µM | IC50 (HepG2): 23.4 µM | Activity (SW-620 [32]): 13.2% | IC50 (HGC-27): 17.4 µM | Activity (SW-620 [35]): Dose-dependent effect
